This is an account of results in PMC5650142, “GPR40 partial agonists and AgoPAMs: Differentiating effects on glucose and hormonal secretions in the rodent” (PLoS ONE, 2017).

Where “and” joins values, the source holds several entries; their conditions need not be identical. Equal values may be shown once.

Assay [1] has as its system GK rats. The assay is described as follows: Endogenous glucose production in vivo (2H/13C dual tracer).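 As to Glucose production, EGP Total: micromoles per kg body weight per minute.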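 As to Glucose production, Glycerol: absolute flux in micromoles per kg per minute.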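 As to Glucose production, Glycogen: absolute flux in micromoles per kg per minute.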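 As to Glucose production, TCA: absolute flux in micromoles per kg per minute.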 Particulars: GK rats, 30 mpk, individual animal values (data for Fig 8); 30 mg/kg. Further details: species or system rat. Here is the method: To evaluate the effects of the GPR40 partial and AgoPAM compounds on EGP in vivo, a 2H/13C dual tracer approach was used to calculate EGP and its contributing sources. Following the chronic treatments described above, 0.9% NaCl salinated deuterium oxide (D2O, Sigma-Aldrich, St. Louis, MO) was administered to all animals via intraperitoneal (IP) injection at dose volume of 20 ml/kg at 1 hr post lights on. Animals were then placed in clean cages and food was removed. After a 5 hour fast, blood glucose was measured and animals were dosed with 50 mg/kg [U-13C] glucose (Sigma-Aldrich, St. Louis, MO) IP at 5 ml/kg. Blood was collected via tail snip at time points from 60–150 min post treatment to measure blood glucose (via glucometer) as well as endogenous (12C-glucose) and exogenous (13C-glucose) via GCMS. Following the last tail blood collection, rats were anesthetized with isoflurane and cardiac blood was collected into K2EDTA tubes (Becton, Dickinson and Co., Franklin Lakes, NJ).
The serially collected blood samples were analyzed for 13C-glucose enrichment using GC-MS analysis. The % 13C glucose enrichments were then combined with the total glucose readings to calculate the concentration of 13C-glucose, and these values were modeled with a two-compartment model of whole body glucose metabolism to calculate the average EGP for the period from 0–150 minutes.
Terminal blood samples were analyzed for relative 2H enrichment in plasma glucose using the monoacetone glucose method. Briefly, samples were extracted with 70% perchloric acid at a ratio of 50 μl perchloric acid per 1 ml plasma and centrifuged at 25,000 rcf for 10 min at 4°C. The supernatant was collected and the pH was adjusted to 6–8 using aqueous KOH. The samples were then lyophilized overnight. To convert plasma glucose to monoacetone glucose (MAG), acetone and concentrated sulfuric acid were added to the lyophilized samples and stirred for 4 hours at room temperature. Water was then added and the pH adjusted to 2.0 with 3M Na2CO3. Samples were stirred moderately for 18 hours at room temperature, the pH was adjusted to 7 with 3M Na2CO3, and the samples were completely dried by speed vacuum concentration. The resulting MAG samples were then extracted in hot ethyl acetate, dried overnight under a stream of N2 gas, and purified using Discovery DSC-18 SPE columns (6 ml, 1 g bed weight). For the SPE protocol, MAG samples were reconstituted in 3 ml water and passed over the columns which were pre-washed with 2 ml methanol. The columns were rinsed twice with 1 ml water and the MAG was eluted with 5% acetonitrile. The acetonitrile eluent was then transferred to a glass scintillation vial and freeze dried. Purified MAG samples were solubilized in 180 μl 90% acetonitrile for 2H NMR analysis which was performed using the lock channel of a 950 MHz Bruker NMR spectrometer (David H Murdock Research Institute, DHMRI Kannapolis, NC). Acquisition parameters were as follows: 90° pulse, D1 = 1 s, 1H broadband decoupling, NS = 3600, acquisition time ~ 1 hr. The 2H NMR spectra of the MAG samples were then analyzed using Matlab (The Mathworks Inc, Natick, MA) to model the NMR peaks with a Lorentzian lineshape, and the results were used to calculate integrals for each of the seven NMR resonances in the MAG spectrum. Peaks 2, 5, and 6s were then used to calculate the relative sources of EGP (i.e. gluconeogenesis from TCA cycle substrates, glucose production from triose phosphates, and glycogenolysis) and these values were combined with the total EGP measurement to calculate absolute fluxes of glucose production.

The test system of assay [2] is GK rats. The assay is described as follows: GK rat chronic efficacy (28 days: glucose, food intake, body weight, GLP-1, GIP, PYY, insulin, glucagon). It counts as in vivo. Particulars: 30 mpk; for Fasted glucose on day 28 (Fig 3B): day 28, fasted, individual animals. Here is the method: At the start of the study, fed (ambient) blood glucose was measured via glucometer at 1 h post lights on, and animals were selected and sorted into treatment groups based on ambient glucose (n = 10/ GK group, n = 6 WKY control). Blood for baseline incretin measurements was collected in the PM via tail vein. Rats were dosed via oral gavage (PO) at a volume of 5 ml/kg daily at approximately 12:30 PM with either vehicle (0.5% methylcellulose), AP1 at 30 mg/kg, or AP3 at 30 mg/kg. MK-8666, a GPR40 partial agonist synthesized at Merck & Co., Inc., Kenilworth, NJ USA [13], at 30 mg/kg was administered in feed (Research Diets, New Brunswick, NJ) and provided ad lib. All compounds were administered to achieve maximal efficacious exposures determined in acute efficacy studies similar to those acute studies described above. In brief, partial agonists and AgoPAMs were titrated in the acute GK rat experiment described above and the exposure associated with maximal efficacy in glucose lowering was noted. Partial agonists and AgoPAMs were then dosed to maintain those exposures up to 24h post dose. […] Rats from this group and the WKY controls were administered vehicle PO when the vehicle, AP1, and AP3 groups were treated. Fed blood glucose, food intake, and body weights were determined on days 10, 17, 23, and 28 of study at 2 h post lights on. Immediately after these measures were taken on days 10, 17, 23, and 28, food was removed. After 5h of fasting, animals were dosed with vehicle or compound and allowed to rest for an additional hour. Glucose, GLP-1, GIP, and PYY were measured after 6h of fasting at 1 hr post dose. Fed blood glucose is described by animals having had ad libidum access to feed up till the time of sampling and occurred at 2h post-lights on where rats were nearing the end of their nocturnal feeding cycle. Fasted blood glucose is described by blood glucose sampled after 6h of fasting where food was removed at 2h post lights on. Please note that the fasted sample was taken 1h post oral dosing. On day 10, blood was collected from the tail vein (20 μl) after morning glucose measures and after 6 hour fast from a subset of n = 3 rats per treatment group to determine the fed and fasted exposure of the compounds in circulation. The blood was stored at 4°C in 0.1 M sodium citrate for subsequent analysis of drug exposure.
Blood for insulin, glucagon, GLP-1, GIP, and PYY measurements was collected into K2EDTA Microtainer tubes (BD, Franklin Lakes, NJ) pre-treated with DPP4 inhibitor (Millipore, Billerica, MA) and cOmplete™ Protease Inhibitor Cocktail Tablets (Roche Diagnostics, Indianapolis, IN). Tubes were centrifuged for 10 minutes at 5000 RPM, and plasma was aliquotted for analysis. Plasma insulin levels were measured via EIA (Mesoscale Discovery ELISA Kit, Gaithersburg MD). Rat plasma total GLP-1 was measured using Total GLP-1 (ver.2) Assay Kit (Cat#: K150JVC). The measurement of active GLP-1 was carried out in a similar manner as that described for total GLP-1 assay with the exception that MSD Active GLP-1 (ver. 2) assay kit (Cat# K150JWC) was used. Rat plasma glucagon was measured using an in-house glucagon assay developed as a MSD format sandwich immunoassay (Merck & Co., Inc., MRL, Kenilworth, NJ USA). The antibody specificity was cross validated via mass- spec using procedures described in Lee et al. Briefly, MSD Streptavidin Gold plates were coated with 2 μg/ml biotin mouse monoclonal antibody generated to glucagon. Test samples were added to the plates and a separate Sulfo- tagged monoclonal antibody was used to detect the captured glucagon protein (2 μg/ml). The ELISA was carried out in the standard reagents in the MSD format. The plate was read on the SECTOR Imager 6000 Reader. Metabolic hormones GIP (Gastric Inhibitory Polypeptide) and PYY (Peptide YY) were measured in rat plasma using the Rat Metabolic Magnetic Bead Panel (EMD Millipore, Billerica, MA). The assay was performed according to manufacturer protocol. […]

Turning to `COc1ccc(F)c(-c2ccc([C@@H]3CCc4ccc([C@H](C5CC5)[C@H](C)C(=O)O)cc4O3)cc2)c1` [L-254], the “Glucose production, EGP Total” value in the assay on GK rats [1] was 61.3579 µmol/kg/min and 60.2311 µmol/kg/min and 73.9647 µmol/kg/min and 47.8618 µmol/kg/min and 64.0721 µmol/kg/min and 48.3077 µmol/kg/min and 46.8784 µmol/kg/min and 45.4367 µmol/kg/min and 55.8377 µmol/kg/min. Besides, the “Glucose production, Glycerol” value in the assay with GK rats [1] was 10.657 µmol/kg/min and 6.4047 µmol/kg/min and 5.755 µmol/kg/min and 5.519 µmol/kg/min and 3.299 µmol/kg/min and 5.985 µmol/kg/min and 2.316 µmol/kg/min. The “Glucose production, Glycogen” value in the assay on GK rats [1] is 22.6257 µmol/kg/min and 22.3444 µmol/kg/min and 14.5988 µmol/kg/min and 19.8177 µmol/kg/min and 18.6577 µmol/kg/min and 12.2721 µmol/kg/min and 17.7499 µmol/kg/min. Besides, the “Glucose production, TCA” value in the assay on GK rats [1] was 26.9483 µmol/kg/min and 45.2155 µmol/kg/min and 27.5078 µmol/kg/min and 38.7357 µmol/kg/min and 26.3505 µmol/kg/min and 28.6217 µmol/kg/min and 25.3709 µmol/kg/min. The “Glucose Over time (S2 File, Fig 2A)” value in the assay with GK rats [2] (Day 0, individual animals) is 162 mg/dL and 163 mg/dL and 174 mg/dL and 167 mg/dL and 198 mg/dL and 181 mg/dL and 193 mg/dL and 168 mg/dL and 160 mg/dL and 171 mg/dL; with GK rats [2] (Day 10, individual animals) it was 111 mg/dl and 110 mg/dl (2×) and 123 mg/dl and 100 mg/dl and 101 mg/dl and 106 mg/dl and 92 mg/dl and 99 mg/dl and 95 mg/dl; in the assay with GK rats [2] (Day 17, individual animals), 110 mg/dl and 118 mg/dl and 103 mg/dl (2×) and 138 mg/dl and 137 mg/dl and 96 mg/dl and 95 mg/dl and 124 mg/dl and 108 mg/dl; in the assay with GK rats [2] (Day 23, individual animals), 115 mg/dl and 109 mg/dl and 125 mg/dl and 106 mg/dl and 126 mg/dl (2×) and 127 mg/dl and 107 mg/dl and 117 mg/dl and 130 mg/dl; in the assay with GK rats [2] (Day 28, individual animals), 114 mg/dl and 98 mg/dl and 108 mg/dl and 105 mg/dl and 131 mg/dl and 113 mg/dl (2×) and 126 mg/dl and 121 mg/dl and 107 mg/dl. Moreover, in the assay on GK rats [2], the “Fasted glucose on day 28 (Fig 3B)” value is 104 and 87 and 118 and 99 and 111 and 114 and 95 and 92.
Consider `C[C@H](C(=O)O)[C@H](c1ccc2c(c1)O[C@H](C1CN(Cc3cc(C(F)(F)F)ccc3C(F)(F)F)C1)CC2)C1CC1` [L-846], for which, in the assay on GK rats [1], the “Glucose production, EGP Total” value is 61.0286 µmol/kg/min and 62.3968 µmol/kg/min and 60.5987 µmol/kg/min and 63.0498 µmol/kg/min and 58.2916 µmol/kg/min and 53.1262 µmol/kg/min and 50.1943 µmol/kg/min and 59.3349 µmol/kg/min. Also, the “Glucose production, Glycerol” value in the assay on GK rats [1] is 5.2866 µmol/kg/min and 7.6637 µmol/kg/min and 4.613 µmol/kg/min and 10.7135 µmol/kg/min and 9.19 µmol/kg/min and 7.224 µmol/kg/min and 6.179 µmol/kg/min and 7.862 µmol/kg/min. Further, the “Glucose production, Glycogen” value in the assay with GK rats [1] was 22.4627 µmol/kg/min and 29.4039 µmol/kg/min and 20.4093 µmol/kg/min and 17.187 µmol/kg/min and 19.1242 µmol/kg/min and 17.4656 µmol/kg/min and 16.9199 µmol/kg/min and 18.0022 µmol/kg/min. Moreover, the “Glucose production, TCA” value in the assay with GK rats [1] is 33.2793 µmol/kg/min and 25.3292 µmol/kg/min and 35.5765 µmol/kg/min and 35.1493 µmol/kg/min and 29.9769 µmol/kg/min and 28.4363 µmol/kg/min and 27.0955 µmol/kg/min and 33.4708 µmol/kg/min. Also, the “Glucose Over time (S2 File, Fig 2A)” value in the assay on GK rats [2] (Day 0, individual animals) was 162 mg/dL and 164 mg/dL and 165 mg/dL and 161 mg/dL and 182 mg/dL and 169 mg/dL and 204 mg/dL and 174 mg/dL and 186 mg/dL and 171 mg/dL; in the assay on GK rats [2] (Day 10, individual animals) it was 98 mg/dl and 122 mg/dl and 115 mg/dl and 114 mg/dl and 99 mg/dl (2×) and 103 mg/dl and 104 mg/dl and 100 mg/dl and 85 mg/dl; in the assay with GK rats [2] (Day 17, individual animals) it was 78 mg/dl and 96 mg/dl and 115 mg/dl and 110 mg/dl (2×) and 103 mg/dl and 108 mg/dl and 107 mg/dl and 101 mg/dl and 109 mg/dl; in the assay with GK rats [2] (Day 23, individual animals) it was 101 mg/dL and 120 mg/dL and 118 mg/dL and 110 mg/dL and 107 mg/dL and 103 mg/dL and 114 mg/dL and 129 mg/dL and 102 mg/dL and 106 mg/dL; with GK rats [2] (Day 28, individual animals) it was 112 mg/dl and 106 mg/dl and 113 mg/dl (3×) and 116 mg/dl and 101 mg/dl and 141 mg/dl and 132 mg/dl and 119 mg/dl. The “Fasted glucose on day 28 (Fig 3B)” value in the assay on GK rats [2] is 104 and 110 and 84 and 100 and 96 and 87 and 101 and 99 and 103.
